Laboratory results reported in patent publication US20250066370A1, “BICYCLIC TRIAZINE DERIVATIVES FOR THE TREATMENT OF CANCER” (DEUTSCHES KREBSFORSCHUNGSZENTRUM, priority 2022, published 2025).

Assays:
[1] = target: CDK9/CyclinT1 (Homo sapiens (Human), UniProt P50750); assay: CDK9/CycT1 high ATP kinase assay (TR-FRET); format: biochemical; settings: 2 mM ATP (high ATP); median; read-out: CDK9/CyclinT1, 2 mM ATP (high ATP), IC50 - [mol/l] (median)
Protocol: CDK9/CycT1-inhibitory activity of compounds of the present invention at a high ATP concentration after preincubation of enzyme and test compounds was quantified employing the CDK9/CycT1 TR-FRET assay as described in the following paragraphs.
Recombinant full-length His-tagged human CDK9 and CycT1, expressed in insect cells and purified by Ni-NTA affinity chromatography, were purchased from Life Technologies (Cat. No PV4131). As substrate for the kinase reaction biotinylated peptide biotin-Ttds-YISPLKSPYKISEG (C-terminus in amide form) was used which can be purchased e.g. form the company JERINI peptide technologies (Berlin, Germany).
For the assay 50 nanoL of a 100 fold concentrated solution of the test compound in DMSO was pipetted into either a black low volume 384 well microtiter plate or a black 1536 well microtiter plate (both Greiner Bio-One, Frickenhausen, Germany), 2 microL of a solution of CDK9/CycT1 in aqueous assay buffer [50 millimol/L Tris/HCl PH 8.0, 10 millimol/L MgCl2, 1.0 millimol/L dithiothreitol, 0.1 millimol/L sodium ortho-vanadate, 0.01% (v/v) Nonidet-P40 (Sigma)] were added and the mixture was incubated for 15 min at 22° C. to allow pre-binding of the test compounds to the enzyme before the start of the kinase reaction. Then the kinase reaction was started by the addition of 3 microL of a solution of adenosine-tri-phosphate (ATP, 3.3 millimol/L=>final conc. in the 5 microL assay volume is 2 millimol/L) and substrate (1.25 micromol/L=>final conc. in the 5 microL assay volume is 0.75 micromol/L) in assay buffer and the resulting mixture was incubated for a reaction time of 25 min at 22° C. The concentration of CDK9/CycT1 was adjusted depending of the activity of the enzyme lot and was chosen appropriate to have the assay in the linear range, typical concentrations were in the range of 0.5 microg/ml. The reaction was stopped by the addition of 3 microL of a solution of TR-FRET detection reagents (0.33 micromol/L streptavidine-XL665 [Cisbio Bioassays, Codolet, France] and 1.67 nanomol/L anti-RB (pSer807/pSer811)-antibody from BD Pharmingen [#558389] and 2 nanomol/L LANCE EU-W1024 labeled anti-mouse IgG antibody [Perkin-Elmer, product no. AD0077]) in an aqueous EDTA-solution (167 millimol/L EDTA, 0.2% (w/v) bovine serum albumin in 100 millimol/L HEPES pH 7.5).
The resulting mixture was incubated 1 h at 22° C. to allow the formation of complex between the phosphorylated biotinylated peptide and the detection reagents. Subsequently the amount of phosphorylated substrate was evaluated by measurement of the resonance energy transfer from the Eu-chelate to the streptavidine-XL. Therefore, the fluorescence emissions at 620 nm and 665 nm after excitation at 350 nm was measured in a TR-FRET reader, e.g. a Pherastar (BMG Labtechnologies, Offenburg, Germany) or a Viewlux (Perkin-Elmer). The ratio of the emissions at 665 nm and at […] was taken as the measure for the amount of phosphorylated substrate. The data were normalised (enzyme reaction without inhibitor=0% inhibition, all other assay components but no enzyme=100% inhibition).

[2] = test system: BRCA1 mRNA expression in MDA-MB-231 cells; assay: qRT-PCR assay: inhibition of BRCA1 mRNA expression in MDA-MB-231 cells; format: cell-based; settings: Homo sapiens, 24 h exposure, BRCA1 normalised to GAPDH, median, read-out: RTqPCR-MDA-MB-231, IC50 [mol/l], BRCA1 (median)
Protocol: 3. qRT-PCR Assay: BRCA1, ATR, MCL1 in MDA-MB-231, CAL-120
Tissue cultured human MDA-MB-231 human breast cancer cells were plated in 500 microL per well at 200,000 cells/well in a 24 well microtiter plate. After 24 h, the cells were exposed continuously for 24 h to test substances (substances were added with Tecan HP D300 Dispenser). RNA was prepared using Qiagen RNeasy MiniKit (#74106), RNA was quantified using a NanoDrop Equipment, and 600 nano grams of RNA was converted to cDNA using a SuperScript VILO kit (Thermofisher #11755050) followed by qPCR amplification. BRCA1 and ATR gene expression was measured by RT-qPCR and normalised to GAPDH housekeeping gene expression. qPCR primer sets have been purchased from Thermo Fisher Scientific/Applied Biosystems: BRCA1, #Hs 01556193; ATR. #Hs 00992123: GAPDH. #Hs 03929097.

[3] = test system: MDA-MB-231, human breast cancer cells; assay: Proliferation assay MDA-MB-231 (crystal violet); format: cell-based; settings: 96 h, MDA-MB-231 parental cells, 4 days, median, read-out: Prolif-MDA MB-231, IC50 - [mol/l] (median)
Protocol: Human tumour cells were originally obtained from the American Type Culture Collection (ATCC), or from the Deutsche Sammlung von Mikroorganismen und Zellkulturen (DSMZ, German Collection of Microorganisms and Cell Cultures). Cultivated tumour cells (CAL-120, human breast adenocarcinoma cells, DSMZ ACC-459; MDA-MB-231, human breast cancer cells, ATCC HTB-26) were plated at a density of 4,000 cells/well in a 96-well multitier plate in 200 microL of their respective growth medium supplemented 10% fetal calf serum. After 24 hours, the cells of one plate (zero-point plate) were stained with crystal violet (see below), while the medium of the other plates was supplemented with the test substances in various concentrations (0 micromol/L, as well as in the range of 0.01-10 micromol/L; the final concentration of the solvent dimethyl sulfoxide was adjusted to 0.1%) using a Tecan HP D300 Digital Dispenser. The cells were incubated for 4 days in the presence of test substances. Cell proliferation was determined by staining the cells with crystal violet: the cells were fixed by adding 20 microL/measuring point of an 11% glutaric aldehyde solution for 15 minutes at room temperature. After three washing cycles of the fixed cells with water, the plates were dried at room temperature. The cells were stained by adding 100 microL/measuring point of a 0.1% crystal violet solution (pH 3.0). After three washing cycles of the stained cells with water, the plates were dried at room temperature. The dye was dissolved by adding 100 microL/measuring point of a 10% acetic acid solution. The extinction was determined by photometry at a wavelength of 595 nm. The change of cell number, in percent, was calculated by normalization of the measured values to the extinction values of the zero-point plate (=0%) and the extinction of the untreated (0 μM) cells (=100%). The IC50 values (inhibitory concentration at 50% of maximal effect) were determined by means of a 4 parameter fit.

CDK9/CyclinT1, sequence (P50750 whole entry): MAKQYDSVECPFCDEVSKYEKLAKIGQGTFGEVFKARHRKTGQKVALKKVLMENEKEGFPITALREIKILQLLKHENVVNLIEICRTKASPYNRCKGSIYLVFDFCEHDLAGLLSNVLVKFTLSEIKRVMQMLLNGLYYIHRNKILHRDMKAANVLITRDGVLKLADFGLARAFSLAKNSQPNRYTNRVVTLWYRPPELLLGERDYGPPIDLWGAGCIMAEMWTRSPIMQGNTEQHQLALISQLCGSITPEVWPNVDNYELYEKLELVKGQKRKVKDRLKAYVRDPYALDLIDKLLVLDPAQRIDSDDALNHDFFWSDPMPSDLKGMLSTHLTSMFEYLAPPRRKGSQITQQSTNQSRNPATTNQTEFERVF
CDK9/CyclinT1, sequence (O60563 whole entry partner): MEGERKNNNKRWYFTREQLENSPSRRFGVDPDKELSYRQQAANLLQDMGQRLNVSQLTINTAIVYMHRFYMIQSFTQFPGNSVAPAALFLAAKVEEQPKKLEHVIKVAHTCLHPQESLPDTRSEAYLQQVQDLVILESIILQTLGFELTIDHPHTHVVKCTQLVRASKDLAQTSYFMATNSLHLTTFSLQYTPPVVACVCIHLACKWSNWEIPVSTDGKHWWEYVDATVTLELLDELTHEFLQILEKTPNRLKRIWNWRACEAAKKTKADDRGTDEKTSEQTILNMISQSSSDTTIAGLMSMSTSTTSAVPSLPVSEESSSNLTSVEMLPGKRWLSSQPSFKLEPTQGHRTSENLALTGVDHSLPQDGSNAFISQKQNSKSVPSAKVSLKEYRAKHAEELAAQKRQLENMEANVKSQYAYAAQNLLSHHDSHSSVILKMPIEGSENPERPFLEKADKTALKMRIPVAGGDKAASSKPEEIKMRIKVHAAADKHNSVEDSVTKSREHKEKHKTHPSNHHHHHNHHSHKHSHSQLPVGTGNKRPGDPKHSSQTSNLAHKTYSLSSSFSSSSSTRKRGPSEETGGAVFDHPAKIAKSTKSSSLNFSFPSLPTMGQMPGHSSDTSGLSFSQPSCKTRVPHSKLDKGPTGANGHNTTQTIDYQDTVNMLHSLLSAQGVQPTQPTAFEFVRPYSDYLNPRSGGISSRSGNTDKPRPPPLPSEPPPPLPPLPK

SMILES	IC50 [1] [nM]	IC50 [2] [nM]	IC50 [3] [nM]
FC(F)(F)c1ccc(-c2nnc(CNc3nc(N4CCOCC4)nc4c(Br)cnn34)[nH]2)cc1 [Example 1, 8-bromo-2-(morpholin-4-yl)-N-({5-[4-(trifluoromethyl)phenyl]-4H-1,2,4-triazol-3-yl}methyl)pyrazolo[1,5-a][1,3,5]triazin-4-amine]	4580	514	
FC(F)(F)Oc1ccc(-c2nnc(CNc3nc(N4CCOCC4)nc4c(Br)cnn34)[nH]2)cc1 [Example 2, 8-bromo-2-(morpholin-4-yl)-N-({5-[4-(trifluoromethoxy)phenyl]-4H-1,2,4-triazol-3-yl}methyl)pyrazolo[1,5-a][1,3,5]triazin-4-amine]	6350	272	
FC(F)(F)c1ccc(-c2cnc(CNc3nc(N4CCOCC4)nc4c(Br)cnn34)[nH]2)cc1 [Example 3, 8-bromo-2-(morpholin-4-yl)-N-({5-[4-(trifluoromethyl)phenyl]-1H-imidazol-2-yl}methyl)pyrazolo[1,5-a][1,3,5]triazin-4-amine]	15400		
FC(F)(F)Oc1ccc(-c2cnc(CNc3nc(N4CCOCC4)nc4c(Br)cnn34)[nH]2)cc1 [Example 4, 8-bromo-2-(morpholin-4-yl)-N-({5-[4-(trifluoromethoxy)phenyl]-1H-imidazol-2-yl}methyl)pyrazolo[1,5-a][1,3,5]triazin-4-amine]	> 20000	6.94	123
FC(F)(F)Oc1ccc(-c2nnc(CNc3nc(N4CCOCC4)nc4c(C(F)(F)F)cnn34)[nH]2)cc1 [Example 5, 2-(morpholin-4-yl)-N-({5-[4-(trifluoromethoxy)phenyl]-4H-1,2,4-triazol-3-yl}methyl)-8-(trifluoromethyl)pyrazolo[1,5-a][1,3,5]triazin-4-amine]	17800	109	319
FC(F)(F)c1ccc(-c2nnc(CNc3nc(N4CCOCC4)nc4c(C(F)(F)F)cnn34)[nH]2)cc1 [Example 6, 2-(morpholin-4-yl)-8-(trifluoromethyl)-N-({5-[4-(trifluoromethyl)phenyl]-4H-1,2,4-triazol-3-yl}methyl)pyrazolo[1,5-a][1,3,5]triazin-4-amine]	> 20000		777
FC(F)(F)c1ccc(-c2cnc(CNc3nc(N4CCOCC4)nn4c(C(F)(F)F)cnc34)[nH]2)cc1 [Example 7, 2-(morpholin-4-yl)-7-(trifluoromethyl)-N-({5-[4-(trifluoromethyl)phenyl]-1H-imidazol-2-yl}methyl)imidazo[2,1-f][1,2,4]triazin-4-amine]	> 20000		90.5
COc1ccc(-c2nnc(CNc3nc(N4CCOCC4)nc4c(C(F)(F)F)cnn34)[nH]2)cn1 [Example 15, N-{[5-(6-methoxypyridin-3-yl)-4H-1,2,4-triazol-3-yl]methyl}-2-(morpholin-4-yl)-8-(trifluoromethyl)pyrazolo[1,5-a][1,3,5]triazin-4-amine]			259
COc1ccc(-c2nnc(CNc3nc(N4CCOCC4)nn4c(C(F)(F)F)cnc34)[nH]2)cn1 [Example 18, N-{[5-(6-methoxypyridin-3-yl)-4H-1,2,4-triazol-3-yl]methyl}-2-(morpholin-4-yl)-7-(trifluoromethyl)imidazo[2,1-f][1,2,4]triazin-4-amine]		71.5	72.1
FC(F)(F)c1ccc(-c2cnc(CNc3nc(N4CCOCC4)nc4c(C(F)(F)F)cnn34)[nH]2)cn1 [Example 24, 2-(morpholin-4-yl)-8-(trifluoromethyl)-N-({5-[6-(trifluoromethyl)pyridin-3-yl]-1H-imidazol-2-yl}methyl)pyrazolo[1,5-a][1,3,5]triazin-4-amine]		29.5	21.7

More lines, main results first:

IC50 [1] [nM]	SMILES	IC50 [2] [nM]	IC50 [3] [nM]
> 20000	FC(F)(F)Oc1ccc(-c2cnc(CNc3nc(N4CCOCC4)nn4c(C(F)(F)F)cnc34)[nH]2)cc1 [Example 8, 2-(morpholin-4-yl)-N-({5-[4-(trifluoromethoxy)phenyl]-1H-imidazol-2-yl}methyl)-7-(trifluoromethyl)imidazo[2,1-f][1,2,4]triazin-4-amine]	38.2	114
> 19100	FC(F)(F)c1ccc(-c2cnc(CNc3nc(N4CCOCC4)nc4c(C(F)(F)F)cnn34)[nH]2)cc1 [Example 9, 2-(morpholin-4-yl)-8-(trifluoromethyl)-N-({5-[4-(trifluoromethyl)phenyl]-1H-imidazol-2-yl}methyl)pyrazolo[1,5-a][1,3,5]triazin-4-amine]	102	190
> 20000	FC(F)(F)c1ccc(-c2nnc(CNc3nc(N4CCOCC4)nn4c(C(F)(F)F)cnc34)[nH]2)cc1 [Example 11, 2-(morpholin-4-yl)-7-(trifluoromethyl)-N-({5-[4-(trifluoromethyl)phenyl]-4H-1,2,4-triazol-3-yl}methyl)imidazo[2,1-f][1,2,4]triazin-4-amine]		434
> 20000	FC(F)(F)Oc1ccc(-c2nnc(CNc3nc(N4CCOCC4)nn4c(C(F)(F)F)cnc34)[nH]2)cc1 [Example 14, 2-(morpholin-4-yl)-N-({5-[4-(trifluoromethoxy)phenyl]-4H-1,2,4-triazol-3-yl}methyl)-7-(trifluoromethyl)imidazo[2,1-f][1,2,4]triazin-4-amine]		319
1890	Cc1ccc(-c2nnc(CNc3nc(N4CCOCC4)nc4c(C(F)(F)F)cnn34)[nH]2)cn1 [Example 22, N-{[5-(6-methylpyridin-3-yl)-4H-1,2,4-triazol-3-yl]methyl}-2-(morpholin-4-yl)-8-(trifluoromethyl)pyrazolo[1,5-a][1,3,5]triazin-4-amine]		286
